Peptide text beside a SMILES is read from it. * marks the point of attachment. Biotin = O=C1N[C@H]2[C@H](CS[C@H]2CCCCC(=O)*)N1
What was measured:
[1] = tested on: T98G human glioblastoma cells; test: Peptide incorporation into T98G cells (immunocytochemistry, cell counting); type: cell-based; conditions: 6 hours; for Cell penetration / internalization in T98G cells (in words): 10 µM, immunocytochemistry, compared to original NFL-TBS.40-63; for Peptide incorporation (% of cells): T98G cells, 10 µM biotinylated peptide, Alexa-labeled avidin/streptavidin fluorescence microscopy, minimum 200 cells per experiment, mean ± S.E.M., triplicated
Method: (§1) Cells containing the biotinylated peptide were detected using Alexa-labeled avidin (green fluorescence) and those displaying a normal or a destroyed MT network were detected with an anti-tubulin antibody (red fluorescence) ( Figure 1A-B ). Then, we counted a minimum of 200 cells per slide containing or not the peptide, and with a normal or destroyed microtubule network ( Figure 1C ). As illustrated on Figure 1A glioblastoma cells contain a rich MT network. […] Cells were plated on cover slips and cultured in media containing biotinylated peptides (10 μM) for 6 hours. […] The cells were then incubated during 10 min in a 0.5% triton X-100 permeabilization solution, and washed 3 times in PBS. Next, they were incubated in a blocking solution (PBS 5% BSA) for 15 min, then incubated with mouse anti-ß-tubulin antibody (Sigma) 1/200 overnight. Tubulin and biotinylated peptides were localized using respectively Alexa 568 nm anti-mouse antibody and streptavidin Alexa 488 nm (Molecular Probes) 1/200 for 1 hour, followed by washing in PBS. […] Sigma) for 5 min, washed twice with PBS, then cover slips were mounted with an antifading solution. Observations were performed with an Olympus confocal microscope (BX50) using Fluoview.3.1. Software or a Leica DMI6000 inverted microscope and analyzed with Metamorph 7.1.7.0. software. We counted cells containing the peptide and cells displaying a destroyed MT network. Experiments were repeated at least three times, and a minimum of 200 cells was scored during each experiment.

[2] = tested on: T98G human glioblastoma cells; test: Disintegration of the microtubule network in T98G cells (anti-tubulin immunostaining, cell counting); type: cell-based; conditions: T98G cells, 10 µM biotinylated peptide, 6 hours; anti-tubulin immunostaining; minimum 200 cells per experiment; mean ± S.E.M., triplicated
Method: as §1

Structure (SMILES) | Cell penetration / internalization in T98G cells (in words) [1] | Peptide incorporation (% of cells) [1] | Disintegration of MT (% of cells) [2]
CC(C)C[C@H](NC(=O)[C@H](CO)NC(=O)[C@H](CO)NC(=O)[C@H](CO)NC(=O)[C@@H](NC(=O)[C@@H]1CCCN1C(=O)[C@H](C)NC(=O)[C@H](CO)NC(=O)[C@H](Cc1ccc(O)cc1)NC(=O)[C@H](CO)NC(=O)[C@H](CO)NC(=O)[C@H](Cc1ccc(O)cc1)NC(=O)CCCC[C@@H]1SC[C@@H]2NC(=O)N[C@@H]21)C(C)C)C(=O)N[C@@H](CO)C(=O)N[C@H](C(=O)N[C@@H](CCCNC(=N)N)C(=O)N[C@@H](CCCNC(=N)N)C(=O)N[C@@H](CO)C(=O)N[C@@H](Cc1ccc(O)cc1)C(=O)N[C@@H](CO)C(=O)N[C@@H](CO)C(=O)N[C@@H](CO)C(=O)N[C@@H](CO)C(=O)N[C@@H](C)C(=O)N[C@@H](CO)C(N)=O)C(C)C [Gly23Ala] (Biotin-YSSYSAPVSSSLSVRRSYSSSSAS-NH2) | only weak cell-penetrating activity | 6.2±6.2 % of cells | 16.9±4.5 % of cells
CC(C)[C@H](NC(=O)[C@H](CO)NC(=O)[C@H](C)NC(=O)[C@H](CO)NC(=O)[C@H](CO)NC(=O)[C@H](CO)NC(=O)[C@@H](NC(=O)[C@@H]1CCCN1C(=O)[C@H](C)NC(=O)[C@H](CO)NC(=O)[C@H](Cc1ccc(O)cc1)NC(=O)[C@H](CO)NC(=O)[C@H](CO)NC(=O)[C@H](Cc1ccc(O)cc1)NC(=O)CCCC[C@@H]1SC[C@@H]2NC(=O)N[C@@H]21)C(C)C)C(=O)N[C@@H](CCCNC(=N)N)C(=O)N[C@@H](CCCNC(=N)N)C(=O)N[C@@H](CO)C(=O)N[C@@H](Cc1ccc(O)cc1)C(=O)N[C@@H](CO)C(=O)N[C@@H](CO)C(=O)N[C@@H](CO)C(=O)N[C@@H](CO)C(=O)NCC(=O)N[C@@H](CO)C(N)=O [Leu12Ala] (Biotin-YSSYSAPVSSSASVRRSYSSSSGS-NH2) |  | 0 % of cells | 15.5±2.8 % of cells
CC(C)[C@H](NC(=O)[C@H](CO)NC(=O)[C@@H](NC(=O)[C@H](CO)NC(=O)[C@H](CO)NC(=O)[C@H](CO)NC(=O)[C@@H](NC(=O)[C@@H]1CCCN1C(=O)[C@H](C)NC(=O)[C@H](CO)NC(=O)[C@H](Cc1ccc(O)cc1)NC(=O)[C@H](CO)NC(=O)[C@H](CO)NC(=O)[C@H](Cc1ccc(O)cc1)NC(=O)CCCC[C@@H]1SC[C@@H]2NC(=O)N[C@@H]21)C(C)C)C(C)C)C(=O)N[C@@H](CCCNC(=N)N)C(=O)N[C@@H](CCCNC(=N)N)C(=O)N[C@@H](CO)C(=O)N[C@@H](Cc1ccc(O)cc1)C(=O)N[C@@H](CO)C(=O)N[C@@H](CO)C(=O)N[C@@H](CO)C(=O)N[C@@H](CO)C(=O)NCC(=O)N[C@@H](CO)C(N)=O [Leu12Val] (Biotin-YSSYSAPVSSSVSVRRSYSSSSGS-NH2) |  | 58.6±5.0 % of cells | 43.8±1.7 % of cells
CC(C)C[C@H](NC(=O)[C@H](CO)NC(=O)[C@H](CO)NC(=O)[C@H](CO)NC(=O)[C@@H](NC(=O)[C@H](C)NC(=O)[C@H](C)NC(=O)[C@H](CO)NC(=O)[C@H](Cc1ccc(O)cc1)NC(=O)[C@H](CO)NC(=O)[C@H](CO)NC(=O)[C@H](Cc1ccc(O)cc1)NC(=O)CCCC[C@@H]1SC[C@@H]2NC(=O)N[C@@H]21)C(C)C)C(=O)N[C@@H](CO)C(=O)N[C@H](C(=O)N[C@@H](CCCNC(=N)N)C(=O)N[C@@H](CCCNC(=N)N)C(=O)N[C@@H](CO)C(=O)N[C@@H](Cc1ccc(O)cc1)C(=O)N[C@@H](CO)C(=O)N[C@@H](CO)C(=O)N[C@@H](CO)C(=O)N[C@@H](CO)C(=O)NCC(=O)N[C@@H](CO)C(N)=O)C(C)C [Pro7Ala] (Biotin-YSSYSAAVSSSLSVRRSYSSSSGS-NH2) |  | 16.7±4.6 % of cells | 26.6±5.9 % of cells
CC(C)C[C@H](NC(=O)[C@H](CO)NC(=O)[C@H](CO)NC(=O)[C@H](CO)NC(=O)[C@@H](NC(=O)[C@@H]1CCCN1C(=O)[C@H](C)NC(=O)[C@H](CO)NC(=O)[C@H](Cc1ccc(O)cc1)NC(=O)[C@H](CO)NC(=O)[C@H](C)NC(=O)[C@H](Cc1ccc(O)cc1)NC(=O)CCCC[C@@H]1SC[C@@H]2NC(=O)N[C@@H]21)C(C)C)C(=O)N[C@@H](CO)C(=O)N[C@H](C(=O)N[C@@H](CCCNC(=N)N)C(=O)N[C@@H](CCCNC(=N)N)C(=O)N[C@@H](CO)C(=O)N[C@@H](Cc1ccc(O)cc1)C(=O)N[C@@H](CO)C(=O)N[C@@H](CO)C(=O)N[C@@H](CO)C(=O)N[C@@H](CO)C(=O)NCC(=O)N[C@@H](CO)C(N)=O)C(C)C [Ser2Ala] (Biotin-YASYSAPVSSSLSVRRSYSSSSGS-NH2) |  | 5.9±6.4 % of cells | 23.5±1.1 % of cells
CC(C)C[C@H](NC(=O)[C@H](CO)NC(=O)[C@H](CO)NC(=O)[C@H](CO)NC(=O)[C@@H](NC(=O)[C@@H]1CCCN1C(=O)[C@H](C)NC(=O)[C@H](CO)NC(=O)[C@H](Cc1ccc(O)cc1)NC(=O)[C@H](C)NC(=O)[C@H](CO)NC(=O)[C@H](Cc1ccc(O)cc1)NC(=O)CCCC[C@@H]1SC[C@@H]2NC(=O)N[C@@H]21)C(C)C)C(=O)N[C@@H](CO)C(=O)N[C@H](C(=O)N[C@@H](CCCNC(=N)N)C(=O)N[C@@H](CCCNC(=N)N)C(=O)N[C@@H](CO)C(=O)N[C@@H](Cc1ccc(O)cc1)C(=O)N[C@@H](CO)C(=O)N[C@@H](CO)C(=O)N[C@@H](CO)C(=O)N[C@@H](CO)C(=O)NCC(=O)N[C@@H](CO)C(N)=O)C(C)C [Ser3Ala] (Biotin-YSAYSAPVSSSLSVRRSYSSSSGS-NH2) |  | 0.8±1.2 % of cells | 19.1±0.9 % of cells
CC(C)C[C@H](NC(=O)[C@H](CO)NC(=O)[C@H](CO)NC(=O)[C@H](CO)NC(=O)[C@@H](NC(=O)[C@@H]1CCCN1C(=O)[C@H](C)NC(=O)[C@H](C)NC(=O)[C@H](Cc1ccc(O)cc1)NC(=O)[C@H](CO)NC(=O)[C@H](CO)NC(=O)[C@H](Cc1ccc(O)cc1)NC(=O)CCCC[C@@H]1SC[C@@H]2NC(=O)N[C@@H]21)C(C)C)C(=O)N[C@@H](CO)C(=O)N[C@H](C(=O)N[C@@H](CCCNC(=N)N)C(=O)N[C@@H](CCCNC(=N)N)C(=O)N[C@@H](CO)C(=O)N[C@@H](Cc1ccc(O)cc1)C(=O)N[C@@H](CO)C(=O)N[C@@H](CO)C(=O)N[C@@H](CO)C(=O)N[C@@H](CO)C(=O)NCC(=O)N[C@@H](CO)C(N)=O)C(C)C [Ser5Ala] (Biotin-YSSYAAPVSSSLSVRRSYSSSSGS-NH2) |  | 16.0±1.4 % of cells | 23.6±1.6 % of cells
CC(C)C[C@H](NC(=O)[C@H](CO)NC(=O)[C@H](CO)NC(=O)[C@H](C)NC(=O)[C@@H](NC(=O)[C@@H]1CCCN1C(=O)[C@H](C)NC(=O)[C@H](CO)NC(=O)[C@H](Cc1ccc(O)cc1)NC(=O)[C@H](CO)NC(=O)[C@H](CO)NC(=O)[C@H](Cc1ccc(O)cc1)NC(=O)CCCC[C@@H]1SC[C@@H]2NC(=O)N[C@@H]21)C(C)C)C(=O)N[C@@H](CO)C(=O)N[C@H](C(=O)N[C@@H](CCCNC(=N)N)C(=O)N[C@@H](CCCNC(=N)N)C(=O)N[C@@H](CO)C(=O)N[C@@H](Cc1ccc(O)cc1)C(=O)N[C@@H](CO)C(=O)N[C@@H](CO)C(=O)N[C@@H](CO)C(=O)N[C@@H](CO)C(=O)NCC(=O)N[C@@H](CO)C(N)=O)C(C)C [Ser9Ala] (Biotin-YSSYSAPVASSLSVRRSYSSSSGS-NH2) | penetrated in cells significantly although to a much lesser extent than the wt peptide | 23.3±8.4 % of cells | 27.1±4.8 % of cells
CC(C)C[C@H](NC(=O)[C@H](CO)NC(=O)[C@H](C)NC(=O)[C@H](CO)NC(=O)[C@@H](NC(=O)[C@@H]1CCCN1C(=O)[C@H](C)NC(=O)[C@H](CO)NC(=O)[C@H](Cc1ccc(O)cc1)NC(=O)[C@H](CO)NC(=O)[C@H](CO)NC(=O)[C@H](Cc1ccc(O)cc1)NC(=O)CCCC[C@@H]1SC[C@@H]2NC(=O)N[C@@H]21)C(C)C)C(=O)N[C@@H](CO)C(=O)N[C@H](C(=O)N[C@@H](CCCNC(=N)N)C(=O)N[C@@H](CCCNC(=N)N)C(=O)N[C@@H](CO)C(=O)N[C@@H](Cc1ccc(O)cc1)C(=O)N[C@@H](CO)C(=O)N[C@@H](CO)C(=O)N[C@@H](CO)C(=O)N[C@@H](CO)C(=O)NCC(=O)N[C@@H](CO)C(N)=O)C(C)C [Ser10Ala] (Biotin-YSSYSAPVSASLSVRRSYSSSSGS-NH2) | penetrated in cells significantly although to a much lesser extent than the wt peptide | 34.5±0 % of cells | 32.9±1.9 % of cells
CC(C)C[C@H](NC(=O)[C@H](C)NC(=O)[C@H](CO)NC(=O)[C@H](CO)NC(=O)[C@@H](NC(=O)[C@@H]1CCCN1C(=O)[C@H](C)NC(=O)[C@H](CO)NC(=O)[C@H](Cc1ccc(O)cc1)NC(=O)[C@H](CO)NC(=O)[C@H](CO)NC(=O)[C@H](Cc1ccc(O)cc1)NC(=O)CCCC[C@@H]1SC[C@@H]2NC(=O)N[C@@H]21)C(C)C)C(=O)N[C@@H](CO)C(=O)N[C@H](C(=O)N[C@@H](CCCNC(=N)N)C(=O)N[C@@H](CCCNC(=N)N)C(=O)N[C@@H](CO)C(=O)N[C@@H](Cc1ccc(O)cc1)C(=O)N[C@@H](CO)C(=O)N[C@@H](CO)C(=O)N[C@@H](CO)C(=O)N[C@@H](CO)C(=O)NCC(=O)N[C@@H](CO)C(N)=O)C(C)C [Ser11Ala] (Biotin-YSSYSAPVSSALSVRRSYSSSSGS-NH2) |  | 2.5±2.5 % of cells | 15.9±6.5 % of cells

Source: PMC3494675, “Structure-Function Analysis of the Glioma Targeting NFL-TBS.40-63 Peptide Corresponding to the Tubulin-Binding Site on the Light Neurofilament Subunit” (PLoS ONE, 2012)
